# Key:
# pancreatic organoids = test: intracellular Cl- level (MQAE) in 3D pancreatic organoids; format: cell-based; settings: 100 µM
# Protocol: To assess the biological activity of CPPs changes of intracellular Cl^— level was measured by loading HEK-293 cells with 5 µM N-(Ethoxycarbonylmethyl)-6-Methoxyquinolinium Bromide (MQAE; ThermoFischer; Catalog number: E3101) for 30 min in the presence of 0.05% Pluronic F-127. Cells were bathed with Cl^— free external solution and treated with different concentrations of CPPs at 37° C. at the perfusion rate of 2-3 ml/min. Region of interests (ROIs) were determined by the xcellence softver (Olympus) and changes of Cl^— were determined by exciting the cells with an MT20 light source equipped with a 340/11 nm excitation filter. Excitation and emission wavelengths were separated by a 400 nm beam splitter and the emitted light was captured by a Hamamatsu ORCA- ER CCD camera. One measurement per second was obtained. During further analysis the fluorescence signals were normalized to the initial fluorescence intensity (F1/F0) and expressed as normalized MQAE fluorescence (FIG. 2). […] N: 4-5 independent experiments/each tested condition.
# To test the Cl^— transporting capability of CPPs in primary 3D cells, organoids were loaded with MQAE as above described and bathed in standard HEPES buffered solution (FIG. 4.). […] N: 4-5 independent experiments/each tested condition.
# [1] = apoptosis/necrosis detection kit, effect on cell fate; format: cell-based; settings: human; HEK-293 cells, 100 µM, 30 min; read-out: viable cells after the incubation
# Protocol: (§1) To investigate the effect of compounds according to the invention on cell fate, an apoptosis/necrosis detection kit was used according to the manufacturer’s instruction (Abcam Cat. No.: ab176750). Briefly, HEK-293 cells were incubated with various concentrations of CPPs for 30 min at 37° C. Cells were then washed 3 times and were incubated in 200 µL of Assay Buffer and loaded with CytoCalcein 450, Nuclear Green and Apopxin Deep Red at room temperature for 30-60 min. Following this, cells were washed and imaged. Images were captured using a Zeiss LSM880 confocal microscope with different channels and wavelengths according to each dye: CytoCalcein 450 (Ex/Em = 405/450 nm), Nuclear Green (Ex/Em = 490/520 nm) and Apopxin Deep Red (Ex/Em = 630/660 nm). For each condition, five images were captured and the total number of cells were counted by two independent investigators. Results are visualized in % of total cell number (live/apoptotic/necrotic) (FIG. 1). […] However, the majority of cells survived the treatment.
# HEK-293 cells = test: as above; format: cell-based; settings: for apoptotic cell death: 30 min; for necrotic cell death: 30 min incubation at 37° C.; for toxicity: even in 100 µM
# Protocol: as §1
# CFTR knockout mice = test: severity of lung fibrosis in Cftr knockout mice, nebulized treatment; format: in vivo, mouse
# Text: To assess the effect of in vivo administrated Formula (II) on lung histology parameters, this Example use Cftr^tm1UncTg(FABPCFTR)1Jaw/J mice (Jackson Laboratory, Stock No: 002364). FABP-hCFTR-CFTR bitransgenic mice harbor the FABP-hCFTR transgene [rat fatty acid binding protein 2, intestinal promoter directing expression of a human cystic fibrosis transmembrane conductance regulator (ATP-binding cassette sub-family C, member 7) gene] and a targeted knock-out mutation of the cystic fibrosis transmembrane conductance regulator homolog gene (Cftr). The mice used in this study were 8-12 weeks old and weighted 20-25 grams in the case of wild type (WT) animals and 15-17 grams in the case of CFTR knockout animals, the gender ratio was 1:1 for all groups. Experiments were carried out with adherence to the NIH guidelines and the EU directive 2010/63/EU for the protection of animals used for scientific purposes. The study was authorized by the National Scientific Ethical Committee on Animal Experimentation under license number XXI./1540/2020. Formula (II) was dissolved in physiological saline in a concentration of 10 µM. Treated mice received 400 µL Formula (II) dissolved in physiological saline solution in 5 minutes in a nebulizer in continuous oxygen flow (2L/min). Control animals received physiological saline as vehicle. The mice were grouped into 4 treatment groups as follows: wild type control (Group 1), CFTR knockout control (Group 2), wild type treated (Group 3), CFTR knockout treated (Group 4). Treatment was performed daily for 4 weeks. At the end of the experiments, mice received terminal anesthesia and the lungs were removed. Lungs were fixed for histology and trichrome staining was performed to assess lung parenchyma density and lung fibrosis. Sections were digitalized and fibrosis was scored as follows. 1388×1038 resolution pictures were taken with 10x and 40x magnification objectives with Zeiss ICc3 camera. […] Positive pixels were counted as fibrosis, negative pixels were counted as tissue. […]
Compound,effect on the fluorescent increase after removal of extracellular Cl- (CFTR-mediated Cl- efflux) (pancreatic organoids),"viability at 0.5 h, 100 µM [1] [%]",apoptotic cell death (HEK-293 cells; 10 µM),apoptotic cell death (HEK-293 cells; 100 µM),necrotic cell death (HEK-293 cells),toxicity (HEK-293 cells),"body weight (CFTR knockout mice; all groups, 4 weeks of daily treatment)","adverse events during the treatment (CFTR knockout mice; mice, nebulized daily for 4 weeks)","clinical signs of toxicity (CFTR knockout mice; treated animals, nebulized daily for 4 weeks)"
O=C(O)c1ccc(/C=C2\SC(=S)N(c3cccc(C(F)(F)F)c3)C2=O)cc1 [CFTRinh172],almost completely abolished the fluorescent increase,,,,,,,,
CC[C@H](C)[C@H](NC(=O)[C@H](CCCCN)NC(=O)[C@@H](NC(=O)[C@H](CCC(N)=O)NC(=O)[C@H](CCCNC(=N)N)NC(=O)CCCCCNC(=S)Nc1cc(C(F)(F)F)cc(C(F)(F)F)c1)[C@@H](C)CC)C(=O)N[C@@H](Cc1c[nH]c2ccccc12)C(=O)N[C@@H](Cc1ccccc1)C(=O)N[C@@H](CCC(N)=O)C(=O)N[C@@H](CC(N)=O)C(=O)N[C@@H](CCCNC(=N)N)C(=O)N[C@@H](CCCNC(=N)N)C(=O)N[C@@H](CCSC)C(=O)N[C@@H](CCCCN)C(=O)N[C@@H](Cc1c[nH]c2ccccc12)C(=O)N[C@@H](CCCCN)C(=O)N[C@@H](CCCCN)C(N)=O [Formula (II)],,97.3,limited rate of apoptotic cell death,limited rate of apoptotic cell death,no necrotic cell death was observed,negligible toxicity,maintained their initial weights,no adverse events were observed,No clinical signs of toxicity were observed
CC[C@H](C)[C@H](NC(=O)[C@H](CCCCN)NC(=O)[C@@H](NC(=O)[C@H](CCC(N)=O)NC(=O)[C@H](CCCNC(=N)N)NC(=O)c1ccc(N=C=S)cc1)[C@@H](C)CC)C(=O)N[C@@H](Cc1c[nH]c2ccccc12)C(=O)N[C@@H](Cc1ccccc1)C(=O)N[C@@H](CCC(N)=O)C(=O)N[C@@H](CC(N)=O)C(=O)N[C@@H](CCCNC(=N)N)C(=O)N[C@@H](CCCNC(=N)N)C(=O)N[C@@H](CCSC)C(=O)N[C@@H](CCCCN)C(=O)N[C@@H](Cc1c[nH]c2ccccc12)C(=O)N[C@@H](CCCCN)C(=O)N[C@@H](CCCCN)C(N)=O [Formula (III)],,97.3,,limited rate of apoptotic cell death,no necrotic cell death was observed,negligible toxicity,,,

# Source: patent publication US20230173084A1, “PEPTIDE-BASED SYNTHETIC CHLORIDE ION TRANSPORTERS” (Tavanta Therapeutics Hungary Incorporated, priority 2019, published 2023)
